In patent US20100266691A1, “Agents and Methods to Stimulate Bone Healing” (BATTELLE MEMORIAL INSTITUTE, priority 2009, published 2010):

Legend:
[1] = test system: Mouse MC3T3-E1 pre-osteoblastic cells; experiment: pre-osteoblast chemotaxis trans-well assay; format: cell-based; conditions: for chemotactic effect of LPA in the presence of inhibitor: inhibitor added together with LPA
Description: Mouse MC3T3-E1 pre-osteoblastic cells were seeded into the upper wells of opaque trans-well chambers that had 8.0-micron pores. LPA was added to the growth medium in the lower chamber. The number of cells that migrated through the pores and attached to the underside of the microporous membrane served as a measure of chemotaxis (chemically directed cell migration). Cells were fluorescently labeled with calcein to allow visualization on the undersides of the opaque chambers. Utilizing this assay it was determined that LPA elicited a 6.5 fold increase in pre-osteoblast when compared to cells under control conditions (growth medium in the absence of LPA).

MC3T3-E1 cells = experiment: global gene expression profiling (Affymetrix mouse whole genome microarrays); format: cell-based; conditions: LPA 1.0 μM
Description: LPA also modulates the expression of a large set of pre-osteoblast genes linked to development (FIG. 2). MC3T3-E1 cells were grown in the presence or absence of a physiological level of LPA (1.0 μM). After growth of the cells, total RNA was isolated for use in global gene expression profiling. Gene expression was measured utilizing Affymetrix mouse whole genome microarrays. Data were analyzed using a suite of bioinformatics software. […] As shown, genes involved in cell development are the most statistically significant group affected by LPA.

[2] = test system: Mouse MLO-Y4 osteocyte-like cells; experiment: osteocyte dendrite outgrowth trans-well assay; format: cell-based
Description: Data are normalized to untreated control cells.
Among the effects of LPA on pre-osteoblasts is the induction of membrane extensions that resemble osteocyte dendrites. An assay was developed to study the ability of LPA to stimulate the outgrowth of dendritic processes from osteocytes in vitro, FIG. 3. Mouse MLO-Y4 osteocyte-like cells were seeded in the upper wells of opaque trans-well chambers having 1.0-micron pores which prevent the passage of whole cells but allow penetration by membrane extensions. Cells were fluorescently labeled with calcein to allow visualization of dendrites that were extended onto the undersides of the opaque chambers. It was determined that the presence of LPA in the lower chamber lead to a 7-fold increase in osteocyte dendrite outgrowth.
It is postulated that LPA enhances dendrite outgrowth in vivo, which can re-establish the osteocyte mechanosensory network during the regeneration of damaged bone.

[3] = test system: drill-hole defects in the cortex of rat femurs; experiment: rat femur drill-hole defect healing with PLGA implants (microCT); format: in vivo; conditions: PLGA+12.5 μg LPA vs PLGA+2.0 μg rhBMP2; six weeks post-treatment
Excerpt: Defect regions (arrows) are enlarged on the right; dotted lines depict the original defect boarders.
The inventor has shown, using rat models, that LPA enhances skeletal regeneration in vivo. The bone growth stimulatory effects of LPA were compared to those of bone morphogenetic protein 2 (BMP-2), which is an FDA approved osteoinductive additive to bone implants. Referring to FIG. 4, drill-hole defects (3-mm diameter) were introduced into the cortex of rat femurs. Implants were fabricated utilizing poly(DL-lactic-co-glycolic acid) copolymers) (PLGA). The femurs were then implanted with either LPA or a therapeutic amount (2 μg) of BMP-2 and were compared to a non-treated control. Bone healing was measured as the rate of closure of the defect as visualized in living animals by micro-computed tomography (microTC). Implants were designed as follows: PLGA alone; PLGA+12.5 μg LPA; PLGA+2.0 μg rhBMP2.
One preferred combination of the invention is LPA and BMP-2. Utilizing a rat model, the affects of LPA and LPA with BMP-2 were studied. Rat femurs were drilled to introduce a defect as set forth for FIG. 4. Implants were prepared as described above with the addition of an implant having PLGA+2.0 μg rhBMP2+12.5 μg LPA. Each corresponding drill drill-hole was implanted with: A) nothing (control); B) LPA; C) BMP-2 or D) LPA+BMP-2.

Molecule	chemotactic effect of LPA in the presence of inhibitor [1]	number of genes regulated in LPA-treated cells (MC3T3-E1 cells) [genes]	increase in osteocyte dendrite outgrowth ([2]; LPA in lower chamber, 1.0-micron pores, normalized to untreated control cells) [fold]	stimulation of dendritogenesis ([2]; each concentration tested)	increase in pre-osteoblast chemotaxis compared to cells under control conditions ([1]; LPA in lower chamber, 8.0-micron pores, control = growth medium in the absence of LPA) [fold]	bone healing (closure of the defect) compared with BMP-2 [3]
pertussis toxin	decreased chemotactic effect					
CCCCCCCC/C=C\CCCCCCCC(=O)OC[C@@H](O)COP(=O)([O-])O.[Na+] [LPA, lysophosphatidic acid]		513	7	significantly stimulated dendritogenesis	6.5	stimulatory properties of LPA exceed those of BMP-2
Cc1noc(-c2ccc(CSCCC(=O)O)cc2)c1NC(=O)OC(C)c1ccccc1Cl (stereo not shown) [Ki16425]	decreased chemotactic effect					
